In PubChem BioAssay (NCI) one finds TGI and GI50 data, which are given here for 14 compounds.

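In this assay, cells in 96-well plates receive the compound at five concentrations for 48 hours. Endpoints are linearly interpolated between the surrounding concentrations. Abbreviation: GI50, concentration required for 50% inhibition of growth. TGI: concentration producing complete growth inhibition.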 Bounds are passed on as bounds.

Some test systems named below: SK-OV-3 ovarian; A498 renal; OVCAR-3 ovarian; CCRF-CEM leukemia; SNB-75 CNS; RPMI-8226 leukemia; MDA-N; UO-31 renal; NCI-H522 lung; MOLT-4 leukemia; NCI/ADR-RES ovarian.
Common to all, as to assay: NCI anticancer screen, dose series, 48 h

With `CC1=C(C2=C(C)C(=O)C(=O)c3cc(C)ccc32)c2ccc(C)cc2C(=O)C1=O`, the TGI in the assay on SK-OV-3 ovarian was 3.07 µM; with A498 renal, 3.25 µM; in the assay on OVCAR-3 ovarian, 0.323 µM; in the assay on CCRF-CEM leukemia, > 100 µM; in the assay with SNB-75 CNS, 0.868 µM; with RPMI-8226 leukemia, 0.705 µM. The values for the TGI in the assay with MDA-N, with UO-31 renal and in the assay with NCI-H522 lung were 0.347 µM, 0.305 µM and 0.631 µM, respectively.

On to `C=C1CC/C=C(/C(=O)O)CC[C@H]2[C@@H]1CC2(C)C`, for which the TGI in the assay on SK-OV-3 ovarian, with A498 renal, in the assay with OVCAR-3 ovarian, in the assay with CCRF-CEM leukemia, in the assay on MOLT-4 leukemia and with RPMI-8226 leukemia was > 100 µM each time. Moreover, the TGI with MDA-N, with UO-31 renal and in the assay with NCI-H522 lung was > 100 µM throughout.

Turning to `O=C(CSc1nnc(Cc2ccccc2)o1)Nc1ccc(Cl)cc1`, the TGI in the assay on SK-OV-3 ovarian, in the assay with A498 renal, in the assay on OVCAR-3 ovarian, in the assay on CCRF-CEM leukemia, in the assay on MOLT-4 leukemia and with SNB-75 CNS was > 100 µM throughout. Besides, the TGI in the assay with RPMI-8226 leukemia, with UO-31 renal and in the assay with NCI-H522 lung was > 100 µM in each case.

Consider `CN(C)C(=O)CC(C(=O)O)c1c[nH]c2ccccc12` (stereo unspecified), for which the TGI in the assay with A498 renal, in the assay on OVCAR-3 ovarian, in the assay on CCRF-CEM leukemia, with MOLT-4 leukemia, in the assay with SNB-75 CNS and in the assay on RPMI-8226 leukemia was > 100 µM throughout. In addition, the figures for the TGI with UO-31 renal and in the assay with NCI-H522 lung were 41.6 µM and > 100 µM, respectively.

As to `NC(=O)N/N=C(\Cc1nc2ccc(C(=O)c3ccccc3)cc2[nH]c1=O)C(=O)Nc1ccc(Br)cc1`, the TGI in the assay on SK-OV-3 ovarian, in the assay with A498 renal, with OVCAR-3 ovarian, in the assay on CCRF-CEM leukemia, in the assay with MOLT-4 leukemia and with SNB-75 CNS was > 100 µM throughout. In addition, the TGI in the assay with RPMI-8226 leukemia, in the assay on UO-31 renal and in the assay with NCI-H522 lung was > 100 µM throughout.

For the compound `Nc1nc2c(ncn2CCOC(c2ccccc2)P(=O)(O)O)c(=O)[nH]1` (stereo unspecified), the TGI with SK-OV-3 ovarian, in the assay on A498 renal, in the assay on OVCAR-3 ovarian, in the assay on SNB-75 CNS, in the assay with UO-31 renal and in the assay with NCI-H522 lung was > 100 µM throughout.

On to `COC(=O)[C@@H]1c2cc3c(c(O)c2[C@@H](OC)C[C@@]1(C)O)C(=O)c1c(O)cc2c(c1C3=O)OC1O[C@@]2(C)[C@H](O)[C@@H](N(C)C)[C@@H]1O`, for which the TGI in the assay on SK-OV-3 ovarian was 3.94 µM; in the assay on A498 renal, 0.764 µM; in the assay with OVCAR-3 ovarian, 1.69 µM; in the assay with CCRF-CEM leukemia, > 150 µM; in the assay on MOLT-4 leukemia, > 150 µM; in the assay with SNB-75 CNS, 0.977 µM. Moreover, the TGI was > 150 µM in the assay with RPMI-8226 leukemia, 4.22 µM in the assay with NCI/ADR-RES ovarian, 3.12 µM in the assay on UO-31 renal and 1.9 µM with NCI-H522 lung.

In the case of `CN1CCN(CC(=O)Nc2ccc3ncnc(Nc4ccc(Oc5cccc(C(F)(F)F)c5)c(Cl)c4)c3c2)CC1`, the GI50 in the assay on A498 renal was 1.32 µM; in the assay with OVCAR-3 ovarian, 1.49 µM; in the assay with SNB-75 CNS it was 1.35 µM; in the assay on UO-31 renal, 1.2 µM. Further, the TGI in the assay on A498 renal turned out to be 2.66 µM; in the assay on OVCAR-3 ovarian, 2.87 µM; in the assay with SNB-75 CNS it was 2.67 µM; in the assay on UO-31 renal it was 2.46 µM.

Regarding `Cc1cccc(-c2cc(=O)c3ccc(C)nc3[nH]2)c1`, the TGI with SK-OV-3 ovarian is > 100 µM; in the assay with A498 renal, > 51.1 µM; with OVCAR-3 ovarian, 0.503 µM; with CCRF-CEM leukemia, > 22.8 µM; with MOLT-4 leukemia it was > 80.6 µM; in the assay on SNB-75 CNS, 49.2 µM. Also, the TGI in the assay on RPMI-8226 leukemia was 23.2 µM; with NCI/ADR-RES ovarian it was 0.383 µM; in the assay on UO-31 renal it was > 100 µM; in the assay on NCI-H522 lung, 0.75 µM.

For `CN(C)c1ccc(/C=C/c2sc3ccc4ccccc4c3[n+]2C)cc1`, the GI50 in the assay on SK-OV-3 ovarian was 0.482 µM; in the assay with A498 renal, 0.539 µM; with CCRF-CEM leukemia, 0.33 µM; with NCI/ADR-RES ovarian, 2.81 µM; in the assay on UO-31 renal, 0.401 µM. Besides, the TGI in the assay on SK-OV-3 ovarian is 2.4 µM; with A498 renal, 2.85 µM; in the assay with CCRF-CEM leukemia it was > 100 µM; with NCI/ADR-RES ovarian, > 100 µM; in the assay with UO-31 renal, 3.84 µM.

Consider `CCCCCCOc1ccc(NC2=C(Cl)C(=O)c3cccnc3C2=O)cc1`, for which the TGI is > 10 µM with SK-OV-3 ovarian; > 10 µM in the assay on A498 renal; 2.85 µM in the assay with OVCAR-3 ovarian; > 10 µM in the assay on CCRF-CEM leukemia; > 10 µM with MOLT-4 leukemia; 2.79 µM with SNB-75 CNS. Also, the results for the TGI in the assay on RPMI-8226 leukemia, in the assay with MDA-N and in the assay on UO-31 renal were 2.53 µM, 3.18 µM and 2.47 µM, respectively.

Consider `C=C1C(=O)OC2/C=C(\C)C(O)CC(O)C(C)(O)CC(OC(=O)/C(C)=C/C)C12` (stereo unspecified), for which the TGI is > 100 µM with SK-OV-3 ovarian; > 84.3 µM with A498 renal; > 100 µM with OVCAR-3 ovarian; > 82.8 µM with CCRF-CEM leukemia; > 100 µM with MOLT-4 leukemia; > 94.2 µM in the assay on SNB-75 CNS. In addition, the TGI in the assay on RPMI-8226 leukemia was 74.2 µM; in the assay with MDA-N, > 100 µM; in the assay with UO-31 renal, > 100 µM; in the assay on NCI-H522 lung it was > 100 µM.

For the compound `OC1C(O)C(O)C(O)C(O)C1O` (stereo unspecified), the TGI in the assay on SK-OV-3 ovarian was > 1000 µM; in the assay with A498 renal it was > 1000 µM; with OVCAR-3 ovarian, > 1000 µM; in the assay on CCRF-CEM leukemia, 144 µM; in the assay on MOLT-4 leukemia, 916 µM; in the assay with SNB-75 CNS, > 1000 µM. For the same compound, the TGI in the assay on RPMI-8226 leukemia, in the assay on NCI/ADR-RES ovarian and in the assay on UO-31 renal was > 1000 µM in each case.

As for `CN(C)CCNCc1c2ccccc2c(CNCCN(C)C)c2ccccc12`, the TGI is 42.5 µM with SK-OV-3 ovarian; 55.9 µM in the assay on A498 renal; > 100 µM with OVCAR-3 ovarian; 88.8 µM in the assay on CCRF-CEM leukemia; 8.31 µM in the assay with MOLT-4 leukemia; > 100 µM in the assay with SNB-75 CNS. Also, the TGI in the assay on RPMI-8226 leukemia, with NCI/ADR-RES ovarian, in the assay with UO-31 renal and in the assay on NCI-H522 lung was > 100 µM in each case.
